Data published in ChEMBL document CHEMBL5625227, “Discovery and optimization of 2,3-diaryl-1,3-thiazolidin-4-one-based derivatives as potent and selective cytotoxic agents with anti-inflammatory activity” (Eur J Med Chem, 2023).
Active and inactive are the calls of the source. The calls are words filed in the database; no cut-off is given here.

How the values were obtained:
MCF7 = assay: Cytotoxicity against human MCF7 cells assessed as inhibition in cell growth incubated for 72 hrs by MTT assay; format: functional, cell-based; settings: MCF7, 72 h
HT-29 [1] = assay: Cytotoxicity against human HT-29 cells assessed as inhibition in cell growth incubated for 72 hrs by MTT assay; format: functional, cell-based; settings: HT-29, 72 h
A2780 = assay: Cytotoxicity against human A2780 cells assessed as inhibition in cell growth incubated for 72 hrs by MTT assay; format: functional, cell-based; settings: A2780, 72 h
[2] = Cytotoxicity against human MRC5 cells assessed as inhibition in cell growth incubated for 72 hrs by MTT assay; format: toxicity, cell-based
[3] = Selectivity index, ratio of IC50 for cytotoxicity against human MRC5 cells to IC50 for cytotoxicity against human MCF7 cells; settings: MRC5 cells versus MCF7 cells
[4] = Selectivity index, ratio of IC50 for cytotoxicity against human MRC5 cells to IC50 for cytotoxicity against human HT-29 cells; settings: MRC5 cells versus HT-29 cells
[5] = Selectivity index, ratio of IC50 for cytotoxicity against human MRC5 cells to IC50 for cytotoxicity against human A2780 cells; settings: MRC5 cells versus A2780 cells
HT-29 [6] = assay: Anticlonogenic activity against human HT-29 cells assessed as reduction in number of colonies at 0.25 uM incubated for 24 hrs by clonogenic survival assay; format: functional, cell-based
Ehrlich [7] = assay: Antitumor activity against mouse Ehrlich solid carcinoma cells bearing adult male swiss albino mouse assessed as decrease in tumor volume at 50 mg/kg, po administered every other day and observed at 9 days; format: functional, organism-based; settings: time 9.0 day
Ehrlich [8] = assay: Antitumor activity against mouse Ehrlich solid carcinoma cells bearing adult male swiss albino mouse assessed as decrease in tumor volume at 50 mg/kg, po administered every other day and observed at 13 days; format: functional, organism-based; settings: time 13.0 day
Ehrlich [9] = assay: Antitumor activity against mouse Ehrlich solid carcinoma cells bearing adult male swiss albino mouse assessed as decrease in tumor volume at 50 mg/kg, po administered every other day and observed at 5 days; format: functional, organism-based; settings: time 5.0 day
Ehrlich [10] = assay: Antitumor activity against mouse Ehrlich solid carcinoma cells bearing adult male swiss albino mouse assessed as tumor growth inhibition at 50 mg/kg, po administered every other day and observed at 13 days relative to control; format: functional; settings: 312 h, time 13 day, read-out: TGI
Ehrlich [11] = assay: Antitumor activity against mouse Ehrlich solid carcinoma cells bearing adult male swiss albino mouse assessed as decrease in tumor weight at 50 mg/kg, po administered every other day and observed at 14 days; format: functional, organism-based; settings: time 14.0 day
HT-29 [12] = assay: Anti-migration activity in human HT-29 cells assessed as suppression in cell migration at 0.250 uM incubated 48 hrs by wound-healing assay; format: functional, cell-based; settings: dose 0.25 µM
HT-29 [13] = assay: Induction of apoptosis in human HT-29 cells assessed as accumulation of cells at viable stage at 0.25 uM incubated for 24 hrs by Annexin V-FITC/propidium iodide staining based flow cytometry analysis (Rvb=91.7%); format: functional
HT-29 [14] = assay: Induction of apoptosis in human HT-29 cells assessed as accumulation of cells at early apoptotic stage at 0.25 uM incubated for 24 hrs by Annexin V-FITC/propidium iodide staining based flow cytometry analysis (reference value: 0.1%); format: functional
HT-29 [15] = assay: Induction of apoptosis in human HT-29 cells assessed as accumulation of cells at late apoptotic stage at 0.25 uM incubated for 24 hrs by Annexin V-FITC/propidium iodide staining based flow cytometry analysis (reference value: 0.2%); format: functional
HT-29 [16] = assay: Induction of apoptosis in human HT-29 cells assessed as accumulation of cells at necrotic stage at 0.25 uM incubated for 24 hrs by Annexin V-FITC/propidium iodide staining based flow cytometry analysis (reference value: 8.1%); format: functional
Sus scrofa = organism: Sus scrofa; assay: Inhibition of porcine brain tubulin polymerization at 1 uM by fluorescence-based tubulin polymerization assay
[17] = target: T1, Prostaglandin G/H synthase 1 (Ovis aries, UniProt P05979); assay: Inhibition of ovine COX-1
T1 sequence (P05979 whole entry): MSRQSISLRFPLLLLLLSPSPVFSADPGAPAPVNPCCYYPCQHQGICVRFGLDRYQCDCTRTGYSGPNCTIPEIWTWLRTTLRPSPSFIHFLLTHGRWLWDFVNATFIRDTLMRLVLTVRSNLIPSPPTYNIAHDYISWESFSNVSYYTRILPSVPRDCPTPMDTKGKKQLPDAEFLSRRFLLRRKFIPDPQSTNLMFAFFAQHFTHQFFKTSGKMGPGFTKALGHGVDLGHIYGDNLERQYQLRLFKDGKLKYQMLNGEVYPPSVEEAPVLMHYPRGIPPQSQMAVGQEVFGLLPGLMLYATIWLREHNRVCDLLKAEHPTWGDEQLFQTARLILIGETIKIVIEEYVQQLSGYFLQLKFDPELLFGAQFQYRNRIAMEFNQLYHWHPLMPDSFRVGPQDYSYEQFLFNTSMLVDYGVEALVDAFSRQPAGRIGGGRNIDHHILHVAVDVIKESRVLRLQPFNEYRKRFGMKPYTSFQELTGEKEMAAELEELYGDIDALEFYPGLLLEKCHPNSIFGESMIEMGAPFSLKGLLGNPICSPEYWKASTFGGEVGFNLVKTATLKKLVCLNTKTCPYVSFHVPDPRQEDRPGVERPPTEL

Rattus norvegicus [18] = assay: Antiinflammatory activity against carrageenan-induced paw edema Sprague-Dawley rat model assessed as inhibition of paw edema by measuring edema thickness at 50 mg/kg, po measured after 1 hr (reference value: 0.71 +/- 0.03 mm); format: functional
Rattus norvegicus [19] = assay: Antiinflammatory activity against carrageenan-induced paw edema Sprague-Dawley rat model assessed as inhibition of paw edema by measuring edema thickness at 50 mg/kg, po measured after 3 hrs (reference value: 1.41 +/- 0.13 mm); format: functional
Rattus norvegicus [20] = assay: Antiinflammatory activity against carrageenan-induced paw edema Sprague-Dawley rat model assessed as inhibition of paw edema by measuring edema thickness at 50 mg/kg, po measured after 5 hrs (reference value: 1.39 +/- 0.11 mm); format: functional
Rattus norvegicus [21] = assay: Antiinflammatory activity against carrageenan-induced paw edema Sprague-Dawley rat model assessed as inhibition of inflammation at 50 mg/kg, po after 1 hr relative to control; format: functional; parameters: scale not given: the % may be the effect or the level left
Rattus norvegicus [22] = assay: Antiinflammatory activity against carrageenan-induced paw edema Sprague-Dawley rat model assessed as inhibition of inflammation at 50 mg/kg, po after 3 hrs relative to control; format: functional; parameters: scale not given: the % may be the effect or the level left
Rattus norvegicus [23] = assay: Antiinflammatory activity against carrageenan-induced paw edema Sprague-Dawley rat model assessed as inhibition of inflammation at 50 mg/kg, po after 5 hrs relative to control; format: functional; parameters: scale not given: the % may be the effect or the level left
[24] = Acute ulcerogenic activity in Sprague-Dawley male rat assessed as incidence of ulcer/10 animal at 50 mg/kg/day, po administered for 3 days; format: toxicity, organism-based; settings: in vivo, 72 h, time 3 day
[25] = Acute ulcerogenic activity in Sprague-Dawley male rat assessed as average number of ulcers at 50 mg/kg/day, po administered for 3 days; format: toxicity, organism-based; settings: in vivo, 72 h, time 3 day
[26] = Acute ulcerogenic activity in Sprague-Dawley male rat assessed as average severity of ulcers at 50 mg/kg/day, po administered for 3 days; format: toxicity, organism-based; settings: in vivo, 72 h, time 3 day
[27] = Acute ulcerogenic activity in Sprague-Dawley male rat assessed as ulcer index at 50 mg/kg/day, po administered for 3 days; format: toxicity, organism-based; settings: in vivo, 72 h, time 3 day
[28] = Acute ulcerogenic activity in Sprague-Dawley male rat assessed as change in normal lamina propria at 50 mg/kg/day, po administered for 3 days by hematoxylin and eosin staining method; format: toxicity, organism-based, Stomach; settings: in vivo, 72 h, time 3 day
[29] = Acute ulcerogenic activity in Sprague-Dawley male rat assessed as change in normal glands at 50 mg/kg/day, po administered for 3 days by hematoxylin and eosin staining method; format: toxicity, organism-based, Stomach; settings: in vivo, 72 h, time 3 day
[30] = Acute ulcerogenic activity in Sprague-Dawley male rat assessed as change in normal keratin at 50 mg/kg/day, po administered for 3 days by hematoxylin and eosin staining method; format: toxicity, organism-based, Stomach; settings: in vivo, 72 h, time 3 day
[31] = Acute ulcerogenic activity in Sprague-Dawley male rat assessed as abnormal structure of the gastric layer by measuring deeply congested blood vessels and aggregated of inflammatory cells at 50 mg/kg/day, po administered for 3 days by hematoxylin and eosin staining method; format: toxicity, organism-based, Stomach; settings: in vivo, 72 h, time 3 day
[32] = Acute ulcerogenic activity in Sprague-Dawley male rat assessed as abnormal structure of the gastric layer by measuring inflammatory cells infiltration in lamina propria at 50 mg/kg/day, po administered for 3 days by hematoxylin and eosin staining method; format: toxicity, organism-based, Stomach; settings: in vivo, 72 h, time 3 day
[33] = Acute ulcerogenic activity in Sprague-Dawley male rat assessed as abnormal structure of the gastric layer by measuring infiltration of lymphocytes in lamina propria at 50 mg/kg/day, po administered for 3 days by hematoxylin and eosin staining method; format: toxicity, organism-based, Stomach; settings: in vivo, 72 h, time 3 day
[34] = Acute ulcerogenic activity in Sprague-Dawley male rat assessed as abnormal structure of the gastric layer by measuring infiltration of macrophages in lamina propria at 50 mg/kg/day, po administered for 3 days by hematoxylin and eosin staining method; format: toxicity, organism-based, Stomach; settings: in vivo, 72 h, time 3 day
[35] = Acute ulcerogenic activity in Sprague-Dawley male rat assessed as abnormal structure of the gastric layer by measuring infiltration of lymphocytes in submucosa at 50 mg/kg/day, po administered for 3 days by hematoxylin and eosin staining method; format: toxicity, organism-based, Stomach; settings: in vivo, 72 h, time 3 day
[36] = Acute ulcerogenic activity in Sprague-Dawley male rat assessed as abnormal structure of the gastric layer by measuring infiltration of macrophages in submucosa at 50 mg/kg/day, po administered for 3 days by hematoxylin and eosin staining method; format: toxicity, organism-based, Stomach; settings: in vivo, 72 h, time 3 day
[37] = Acute ulcerogenic activity in Sprague-Dawley male rat assessed as abnormal structure of the gastric layer by measuring glandular hyperactivation in submucosa at 50 mg/kg/day, po administered for 3 days by hematoxylin and eosin staining method; format: toxicity, organism-based, Stomach; settings: in vivo, 72 h, time 3 day
[38] = Acute ulcerogenic activity in Sprague-Dawley male rat assessed as nonactivated glands in intact mucosa at 50 mg/kg/day, po administered for 3 days by hematoxylin and eosin staining method; format: toxicity, organism-based, Stomach; settings: in vivo, 72 h, time 3 day
[39] = Acute ulcerogenic activity in Sprague-Dawley male rat assessed as congestion in intact mucosa at 50 mg/kg/day, po administered for 3 days by hematoxylin and eosin staining method; format: toxicity, organism-based, Stomach; settings: in vivo, 72 h, time 3 day
[40] = Acute ulcerogenic activity in Sprague-Dawley male rat by measuring filtration of inflammatory cells in edema at 50 mg/kg/day, po administered for 3 days by hematoxylin and eosin staining method; format: toxicity, organism-based, Stomach; settings: in vivo, 72 h, time 3 day

COc1ccc(NC(=O)COc2ccc(N3C(=O)CSC3c3ccccc3)cc2)cc1 (stereo not drawn)
IC50 (MCF7): 1.51 µM
IC50 (HT-29 [1]): 0.24 µM
IC50 (A2780): 0.67 µM
IC50 at 72 h [2]: 6.23 µM
selectivity ratio at 72 h [3]: 4.13
selectivity ratio at 72 h [4]: 25.9
selectivity ratio at 72 h [5]: 9.3
Activity (HT-29 [6]): Active
Activity (Ehrlich [7]): Active
Activity (Ehrlich [8]): Active
Activity (Ehrlich [9]): Active
inhibition in vivo at 50 mg/kg (Ehrlich [10]): 27.4%
Activity (Ehrlich [11]): Active
Activity (HT-29 [12]): Active
Activity (HT-29 [13]): 75.8%
Activity (HT-29 [14]): 9%
Activity (HT-29 [15]): 5.3%
Activity (HT-29 [16]): 9.8%
inhibition (Sus scrofa): inactive
IC50 [17]: 0.62 µM
Activity (Rattus norvegicus [18]): 0.48 mm
Activity (Rattus norvegicus [19]): 0.56 mm
Activity (Rattus norvegicus [20]): 0.56 mm
Activity (Rattus norvegicus [21]): 15.3%
Activity (Rattus norvegicus [22]): 32.7%
Activity (Rattus norvegicus [23]): 59.7%
Activity [24]: 3.33%
Activity [25]: 0.67
Activity [26]: 1
UI [27]: 5
Activity [28]: Non-Toxic
Activity [29]: Non-Toxic
Activity [30]: Non-Toxic

COc1ccc2c(c1)c(CC(=O)O)c(C)n2C(=O)c1ccc(Cl)cc1 [INDOMETHACIN]
Activity (Rattus norvegicus [18]): 0.41 mm
Activity (Rattus norvegicus [19]): 0.22 mm
Activity (Rattus norvegicus [20]): 0.24 mm
Activity (Rattus norvegicus [21]): 42.25%
Activity [24]: 10%
Activity [25]: 11.33
Activity [26]: 1
UI [27]: 22.33
Activity [31]: Toxic
Activity [32]: Toxic
Activity [33]: Toxic
Activity [34]: Toxic
Activity [35]: Toxic
Activity [36]: Toxic
Activity [37]: Toxic

Cc1ccc(-c2cc(C(F)(F)F)nn2-c2ccc(S(N)(=O)=O)cc2)cc1 [CELECOXIB]
IC50 (MCF7): 15.4 µM
IC50 (HT-29 [1]): 32.5 µM
IC50 (A2780): 18.1 µM
Activity (Rattus norvegicus [18]): 0.27 mm
Activity (Rattus norvegicus [19]): 0.34 mm
Activity (Rattus norvegicus [20]): 0.5 mm
Activity (Rattus norvegicus [21]): 61.97%
Activity (Rattus norvegicus [23]): 64.03%
Activity [24]: 6.67%
Activity [25]: 0.67
Activity [26]: 1
UI [27]: 8.34
Activity [38]: Non-Toxic
Activity [39]: Toxic
Activity [40]: Non-Toxic
